`*/C(=C(/*)c1ccc(CCCC)cc1)c1ccccc1` (repeat unit) yielded a glass transition temperature of 200.00 °C.

`*C(=O)Nc1ccc(Oc2ccc(C3(c4ccc(Oc5ccc(NC(=O)c6ccc7c(c6)C(=O)N(c6ccc(Oc8ccc(Oc9ccc(N%10C(=O)c%11ccc(*)cc%11C%10=O)cc9)c(C)c8)cc6)C7=O)cc5)cc4)NC(=O)c4ccccc43)cc2)cc1` (repeat unit) registered a glass transition temperature of 293.00 °C.

On to `*C(=O)Nc1ccc(Oc2cccc(Oc3ccc(NC(=O)c4ccc5c(c4)C(=O)N(c4ccc(Oc6cccc(Oc7ccc(N8C(=O)c9ccc(*)cc9C8=O)cc7)c6C#N)cc4)C5=O)cc3)c2)cc1` (repeat unit), for which the glass transition temperature came to 217.00 °C.

Turning to `*C(=O)Nc1cccc(Oc2cccc(Oc3cccc(Oc4cccc(Oc5cccc(NC(=O)c6ccc7c(c6)C(=O)N(c6ccc(Oc8cccc(Oc9ccc(N%10C(=O)c%11ccc(*)cc%11C%10=O)cc9)c8C#N)cc6)C7=O)c5)c4C#N)c3)c2C#N)c1` (repeat unit), the glass transition temperature worked out at 199.00 °C.

Molecule `*C(=O)Oc1ccc(OCCCCCCCCCCCCOc2ccc(OC(=O)c3ccc4c(c3)C(=O)N(c3ccc(S(=O)(=O)c5ccc(N6C(=O)c7ccc(*)cc7C6=O)cc5)cc3)C4=O)cc2)cc1` (repeat unit) had a glass transition temperature of 140.00 °C.

Take `*C(=O)c1ccc2c(c1)C(=O)N(c1ccc(Oc3cc(C(C)(C)C)c(Oc4ccc(N5C(=O)c6ccc(*)cc6C5=O)cc4)cc3C(C)(C)C)cc1)C2=O` (repeat unit): the glass transition temperature turned out to be 288.00 °C.

For `*C(=O)c1ccc2c(c1)C(=O)N(c1ccc(Oc3cccc(Oc4ccc(N5C(=O)c6ccc(*)cc6C5=O)cc4)c3C#N)cc1)C2=O` (repeat unit), the glass transition temperature was determined as 245.00 °C.

`*CCCOCCCCOCCCN1C(=O)c2ccc(C(=O)Oc3ccc(OC(=O)c4ccc5c(c4)C(=O)N(*)C5=O)cc3)cc2C1=O` (repeat unit) gave a glass transition temperature of 56.00 °C.

`*COC(=O)c1ccc(/C(C#N)=C(\c2ccc(OC)cc2)N2CCCC(*)C2)cc1` (repeat unit): the glass transition temperature was determined as 176.00 °C.

`*OP(=O)(Oc1ccc(*)cc1)OC1CCCCC1` (repeat unit): the glass transition temperature turned out to be 108.00 °C.

The molecule `*OP(=O)(Oc1ccc(C)cc1)Oc1ccc(S(=O)(=O)c2ccc(*)cc2)cc1` (repeat unit) displayed a glass transition temperature of 66.00 °C.

Take `*OP(=O)(Oc1ccccc1)Oc1ccc(S(=O)(=O)c2ccc(*)cc2)cc1` (repeat unit): the glass transition temperature stood at 100.50 °C.

With `*O[Si](C)(C)Oc1ccc(*)cc1` (repeat unit), the glass transition temperature turned out to be 90.00 °C.

With `*Oc1ccc(-c2ccc(Oc3ccc(*)cc3)c3ccccc23)c2ccccc12` (repeat unit), the glass transition temperature was 226.00 °C.

For `*Oc1ccc(C(c2ccc(Oc3ccc(C(=O)c4ccc(P(=O)(c5ccccc5)c5ccc(C(=O)c6ccc(*)cc6)cc5)cc4)cc3)cc2)(C(F)(F)F)C(F)(F)F)cc1` (repeat unit), the glass transition temperature came to 207.00 °C.

For the molecule `*Oc1ccc(OC(=O)Oc2ccc(C(*)=O)cc2)cc1` (repeat unit), the glass transition temperature came to 74.00 °C.

Molecule `*Oc1ccc(OC(=O)c2cc(OCCCCCCCCCOCC3CCCN3c3ccc([N+](=O)[O-])cc3)c(C(*)=O)cc2OCCCCCCCCCOCC2CCCN2c2ccc([N+](=O)[O-])cc2)cc1` (repeat unit) returned a glass transition temperature of 34.00 °C.

The molecule `*Oc1ccc(OC(=O)c2cc(OCCCCCCCCOCC3CCCN3c3ccc([N+](=O)[O-])cc3)c(C(*)=O)cc2OCCCCCCCCOCC2CCCN2c2ccc([N+](=O)[O-])cc2)cc1` (repeat unit) came in with a glass transition temperature of 41.00 °C.

`*Oc1ccc(OC(=O)c2cc(OCCCCCCCOCC3CCCN3c3ccc([N+](=O)[O-])cc3)c(C(*)=O)cc2OCCCCCCCOCC2CCCN2c2ccc([N+](=O)[O-])cc2)cc1` (repeat unit) had a glass transition temperature of 50.00 °C.

`*Oc1ccc(OC(=O)c2ccc(C(*)=O)cc2)cc1` (repeat unit) returned a glass transition temperature of 267.00 °C.

`*Oc1ccc(OC(=O)c2ccc(C(*)=O)cc2)cc1C1CCCCC1` (repeat unit) returned a glass transition temperature of 206.00 °C.

As for `*Oc1ccc(OC(=O)c2ccc(C(*)=O)cc2Oc2ccc(C3CCCCC3)cc2)cc1` (repeat unit), the glass transition temperature stood at 113.00 °C.

For the molecule `*Oc1ccc(OC(=O)c2ccc(C(*)=O)cc2Oc2ccc(F)cc2)cc1` (repeat unit), the glass transition temperature was 106.00 °C.

Take `*Oc1ccc(OC(=O)c2ccc(OC(=O)c3ccc(C(=O)Oc4ccc(C(*)=O)cc4)cc3)cc2)cc1` (repeat unit): the glass transition temperature turned out to be 283.00 °C.

For the molecule `*Oc1ccc(OC(=O)c2ccc(OCCCCCCCCCCCCOc3ccc(C(*)=O)cc3)cc2)cc1/C=C/c1ccncc1` (repeat unit), the glass transition temperature was 94.30 °C.

Molecule `*Oc1ccc(OC(=O)c2ccc(OCCCCCCCCCCOc3ccc(C(*)=O)cc3)cc2)cc1S(=O)(=O)c1ccccc1` (repeat unit) displayed a glass transition temperature of 88.00 °C.

`*Oc1ccc(OC(=O)c2ccc(Oc3ccc(C(*)=O)cc3)cc2)c2ccccc12` (repeat unit): the glass transition temperature came to 166.00 °C.

`*Oc1ccc(OC2(F)C(*)(F)C(F)(F)C2(F)F)cc1` (repeat unit) registered a glass transition temperature of 41.00 °C.

On to `*Oc1ccc(Oc2ccc(/C=N/CC/N=C/c3ccc(*)cc3)cc2)cc1` (repeat unit), for which the glass transition temperature turned out to be 101.00 °C.

`*Oc1ccc(Oc2ccc(/C=N/c3ccc(Oc4ccc(/N=C/c5ccc(*)cc5)cc4)cc3)cc2)cc1` (repeat unit) returned a glass transition temperature of 120.00 °C.

Take `*Oc1ccc(Oc2ccc(C(=O)c3ccc(P(=O)(c4ccccc4)c4ccc(C(=O)c5ccc(*)cc5)cc4)cc3)cc2)cc1` (repeat unit): the glass transition temperature amounted to 207.00 °C.

As for `*Oc1ccc(Oc2ccc(C(=O)c3ccccc3)c(-c3cc(*)ccc3C(=O)c3ccccc3)c2)cc1` (repeat unit), the glass transition temperature amounted to 156.00 °C.

`*Oc1ccc(Oc2ccc(NC(=O)c3ccc(Oc4ccc(Oc5ccc(C(=O)Nc6ccc(*)cc6)cc5)cc4C)cc3)cc2)cc1C` (repeat unit) returned a glass transition temperature of 218.50 °C.

Turning to `*Oc1ccc(Oc2ccc(OC(=O)c3cccc(C(*)=O)c3)cc2)cc1` (repeat unit), the glass transition temperature was 164.50 °C.

Take `*Oc1ccc(Oc2ccc(OC(=O)c3ccccc3-c3ccccc3C(*)=O)cc2)cc1` (repeat unit): the glass transition temperature stood at 147.00 °C.

Regarding `*Oc1ccc(Oc2ccc(Oc3cccc(C(=O)Oc4ccc(OC(=O)c5cccc(*)c5)cc4)c3)cc2)cc1` (repeat unit), the glass transition temperature amounted to 101.00 °C.

`*Oc1ccc(Oc2cccc(C(=O)Oc3ccc(OC(=O)c4cccc(*)c4)cc3)c2)cc1` (repeat unit) registered a glass transition temperature of 119.00 °C.

On to `*Oc1ccc(S(=O)(=O)c2ccc(OC(=O)c3ccc([Si](c4ccccc4)(c4ccccc4)c4ccc(C(*)=O)cc4)cc3)cc2)cc1` (repeat unit), for which the glass transition temperature stood at 250.00 °C.

Take `*Oc1ccc(S(=O)(=O)c2ccc(Oc3c(C)cc(-c4cc(C)c(*)c(C)c4Br)c(Br)c3C)cc2)cc1` (repeat unit): the glass transition temperature was determined as 298.20 °C.

`*Oc1cccc(Oc2ccc(S(=O)(=O)c3ccc(Oc4ccc(C(=O)c5ccc(*)cc5)cc4)cc3)cc2)c1` (repeat unit) registered a glass transition temperature of 167.00 °C.

`*c1ccc(Cc2ccc(N3C(=O)c4ccc(Oc5ccc(Oc6ccc7c(c6)C(=O)N(*)C7=O)cc5)cc4C3=O)cc2)cc1` (repeat unit) yielded a glass transition temperature of 259.00 °C.

With `*c1ccc(Oc2ccc(-c3ccc(Oc4ccc(N5C(=O)c6ccc(Oc7c(C)cc(C(C)(C)c8cc(C)c(Oc9ccc%10c(c9)C(=O)N(*)C%10=O)c(C)c8)cc7C)cc6C5=O)cc4)cc3C)c(C)c2)cc1` (repeat unit), the glass transition temperature stood at 257.00 °C.

Take `*c1ccc(Oc2ccc(-c3ccc(Oc4ccc(N5C(=O)c6ccc(Oc7ccc(C8(c9ccc(Oc%10ccc%11c(c%10)C(=O)N(*)C%11=O)cc9)CCC(C(C)(C)C)CC8)cc7)cc6C5=O)cc4)cc3C)c(C)c2)cc1` (repeat unit): the glass transition temperature came to 236.00 °C.

The molecule `*c1ccc(Oc2ccc(-c3ccc(Oc4ccc(N5C(=O)c6ccc(Oc7ccc(Oc8ccc(Oc9ccc%10c(c9)C(=O)N(*)C%10=O)cc8)cc7)cc6C5=O)cc4)cc3)cc2)cc1` (repeat unit) registered a glass transition temperature of 211.00 °C.

As to `*c1ccc(Oc2ccc(Oc3ccc(N4C(=O)c5ccc(Oc6ccc(C7(c8ccc(Oc9ccc%10c(c9)C(=O)N(*)C%10=O)cc8)CCC(c8ccccc8)CC7)cc6)cc5C4=O)cc3)c(C(C)(C)C)c2)cc1` (repeat unit), the glass transition temperature was determined as 236.00 °C.

In turn, `*c1ccc(Oc2ccc3c(c2)C(=O)N(*)C3=O)cc1` (repeat unit) came in with a glass transition temperature of 266.00 °C.

In the case of `*c1ccc(Oc2cccc(Oc3ccc(N4C(=O)c5ccc(Oc6ccc(Oc7ccc(Oc8ccc9c(c8)C(=O)N(*)C9=O)cc7)cc6)cc5C4=O)cc3)c2)cc1` (repeat unit), the glass transition temperature worked out at 184.00 °C.

Consider `*c1ccc(Oc2cccc(Oc3ccc(N4C(=O)c5ccc(Oc6ccc(Oc7ccc8c(c7)C(=O)N(*)C8=O)cc6)cc5C4=O)cc3)c2)cc1` (repeat unit), for which the glass transition temperature came out at 199.00 °C.

For `*c1ccc(Oc2cccc(Oc3ccc(N4C(=O)c5cccc(Oc6ccc(Oc7cccc8c7C(=O)N(*)C8=O)cc6)c5C4=O)cc3)c2)cc1` (repeat unit), the glass transition temperature amounted to 214.00 °C.

For `*c1ccc(S(=O)(=O)c2ccc(N3C(=O)c4ccc(Oc5ccc(Oc6ccc7c(c6)C(=O)N(*)C7=O)cc5)cc4C3=O)cc2)cc1` (repeat unit), the glass transition temperature was 283.00 °C.

The molecule `*c1ccc2c(c1)C(=O)N(c1ccc(Oc3cccc(Oc4ccc(N5C(=O)c6ccc(C(*)(C(F)(F)F)C(F)(F)F)cc6C5=O)cc4)c3C#N)cc1)C2=O` (repeat unit) yielded a glass transition temperature of 280.00 °C.

The molecule `*c1cccc(N2C(=O)c3ccc(Oc4ccc(C(=O)c5ccc(Oc6ccc7c(c6)C(=O)N(*)C7=O)cc5)cc4)cc3C2=O)c1` (repeat unit) returned a glass transition temperature of 239.00 °C.

As to `*c1cccc(N2C(=O)c3cccc(Oc4ccc(Oc5cccc6c5C(=O)N(*)C6=O)cc4)c3C2=O)c1` (repeat unit), the glass transition temperature turned out to be 259.00 °C.
